Results from ChEMBL document CHEMBL4334480, “Anti-inflammatory Ellagitannins from Cleidion brevipetiolatum for the Treatment of Rheumatoid Arthritis” (J Nat Prod, 2019).
The source made the active and inactive calls. The rule behind the calls is not given here.

Legend:
RAW264.7 [1] = assay: Cytotoxicity against mouse RAW264.7 cells after 24 hrs by MTT assay; type: cell-based; conditions: raw264.7, 24 h
RAW264.7 [2] = assay: Anti-inflammatory activity in mouse RAW264.7 cells assessed as inhibition of LPS-induced nitric oxide production preincubated for 2 hrs followed by LPS stimulation and measured after 24 hrs by Griess assay; type: functional, cell-based
[3] = biological target: Transcription factor p65 (Mus musculus) (UniProt Q04207); assay: Inhibition of LPS-induced NFkappaB p65 nuclear translocation in mouse RAW264.7 cells at 5 to 50 uM preincubated for 2 hrs followed by LPS-stimulation after 22 hrs by Western blot analysis; type: cell-based
Sequence of Transcription factor p65 (Mus musculus) (Q04207 whole entry): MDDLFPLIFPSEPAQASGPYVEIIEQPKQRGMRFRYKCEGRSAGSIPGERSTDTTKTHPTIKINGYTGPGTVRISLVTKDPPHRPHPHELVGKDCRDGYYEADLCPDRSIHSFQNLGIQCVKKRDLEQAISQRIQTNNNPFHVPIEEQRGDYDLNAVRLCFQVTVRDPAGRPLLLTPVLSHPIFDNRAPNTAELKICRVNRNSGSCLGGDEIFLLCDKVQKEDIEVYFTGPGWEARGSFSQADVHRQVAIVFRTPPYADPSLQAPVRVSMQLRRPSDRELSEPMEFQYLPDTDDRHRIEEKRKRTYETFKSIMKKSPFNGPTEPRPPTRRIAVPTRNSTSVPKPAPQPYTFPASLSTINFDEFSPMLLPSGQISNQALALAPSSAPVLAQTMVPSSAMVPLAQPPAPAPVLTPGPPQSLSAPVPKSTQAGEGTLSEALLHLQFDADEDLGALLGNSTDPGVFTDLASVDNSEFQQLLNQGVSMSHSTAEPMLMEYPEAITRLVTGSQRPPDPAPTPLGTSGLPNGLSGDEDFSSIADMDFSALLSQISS

[4] = biological target: T1, NF-kappa-B inhibitor alpha (Mus musculus) (UniProt Q9Z1E3); assay: Inhibition of LPS-induced IKBalpha phosphorylation mouse RAW264.7 cells at 5 to 50 uM preincubated for 2 hrs followed by LPS-stimulation after 22 hrs by Western blot analysis; type: cell-based
T1 sequence (whole entry): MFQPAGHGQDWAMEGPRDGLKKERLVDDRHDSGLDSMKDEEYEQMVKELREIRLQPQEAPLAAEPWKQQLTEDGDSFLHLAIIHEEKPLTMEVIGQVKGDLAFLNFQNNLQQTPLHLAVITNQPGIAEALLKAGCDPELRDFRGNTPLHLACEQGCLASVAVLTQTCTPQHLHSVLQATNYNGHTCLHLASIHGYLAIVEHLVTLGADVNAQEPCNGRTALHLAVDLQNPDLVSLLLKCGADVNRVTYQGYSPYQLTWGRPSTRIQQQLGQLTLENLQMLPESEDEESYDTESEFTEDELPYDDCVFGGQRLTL

RAW264.7 [5] = assay: Antiinflammatory activity against mouse RAW264.7 cells assessed as reduction in LPS-induced Cox2 protein expression compound preincubated for 2 hrs followed by LPS stimulation after 22 hrs by Western blot analysis; type: functional, cell-based
RAW264.7 [6] = assay: Antiinflammatory activity against mouse RAW264.7 cells assessed as reduction in LPS-induced iNOS protein expression compound preincubated for 2 hrs followed by LPS stimulation after 22 hrs by Western blot analysis; type: functional, cell-based
RAW264.7 [7] = assay: Antiinflammatory activity against mouse RAW264.7 cells assessed as reduction in LPS-induced IL-1beta mRNA expression compound preincubated for 2 hrs followed by LPS stimulation after 22 hrs by RT-PCR analysis; type: functional, cell-based
RAW264.7 [8] = assay: Antiinflammatory activity against mouse RAW264.7 cells assessed as reduction in LPS-induced Cox2 mRNA expression compound preincubated for 2 hrs followed by LPS stimulation after 22 hrs by RT-PCR analysis; type: functional, cell-based
[9] = Toxicity in DBA/1J mouse assessed as effect on body weight at 50 mg/kg, po; type: organism-based; conditions: in vivo
RAW264.7 [10] = assay: Antiinflammatory activity against mouse RAW264.7 cells assessed as reduction in LPS-induced iNOS mRNA expression compound preincubated for 2 hrs followed by LPS stimulation after 22 hrs by RT-PCR analysis; type: functional, cell-based
[11] = Toxicity in DBA/1J mouse assessed as effect on behavioral changes at 50 mg/kg, po; type: organism-based; conditions: in vivo
Mus musculus [12] = assay: Antiarthritic activity in collagen-induced rheumatoid arthritis DBA/1J mouse model assessed as reduction in hindlimb swelling at 50 mg/kg, po; type: functional, organism-based
Mus musculus [13] = assay: Antiarthritic activity in collagen-induced rheumatoid arthritis DBA/1J mouse model assessed as reduction in forelimb swelling at 50 mg/kg, po; type: functional, organism-based
Mus musculus [14] = assay: Antiarthritic activity in collagen-induced rheumatoid arthritis DBA/1J mouse model at 50 mg/kg, po after 22 days; type: functional, organism-based
Mus musculus [15] = assay: Antiinflammatory activity against carrageenan-induced paw oedema in ICR mouse assessed as reduction in NO level in serum at 50 mg/kg, po administered 30 mins prior to carrageenan challenge after 5 hrs post carrageenan; type: functional, organism-based
Mus musculus [16] = assay: Antiinflammatory activity against carrageenan-induced paw oedema in ICR mouse assessed as inhibition of paw edema at 50 mg/kg, po administered 30 mins prior to carrageenan challenge after 5 hrs post carrageenan challenge; type: functional, organism-based
Mus musculus [17] = assay: Antiinflammatory activity against carrageenan-induced paw edema in ICR mouse assessed as inhibition of paw edema at 50 mg/kg, po administered 30 mins prior to carrageenan challenge measured at 2 hrs post carrageenan challenge relative to control; type: functional
RAW264.7 [18] = assay: Inhibition of LPS-induced JNK phosphorylation in mouse RAW264.7 cells at 5 to 50 uM preincubated for 2 hrs followed by LPS-stimulation after 22 hrs by Western blot analysis; type: cell-based
[19] = biological target: MAP kinase p38 (Mus musculus) (UniProt P47811+O08911+Q9WUI1+Q9Z1B7); assay: Inhibition of LPS-induced P38 phosphorylation in mouse RAW264.7 cells at 5 to 50 uM preincubated for 2 hrs followed by LPS-stimulation after 22 hrs by Western blot analysis; type: cell-based
RAW264.7 [20] = assay: Inhibition of LPS-induced ERK phosphorylation in mouse RAW264.7 cells at 5 to 50 uM preincubated for 2 hrs followed by LPS-stimulation after 22 hrs by Western blot analysis; type: cell-based
RAW264.7 [21] = assay: Antiinflammatory activity against mouse RAW264.7 cells assessed as effect on LPS-induced TNF-alpha mRNA expression at 5 to 50 uM preincubated for 2 hrs followed by LPS stimulation after 22 hrs by RT-PCR analysis; type: functional, cell-based
Mus musculus [22] = assay: Antiinflammatory activity against carrageenan-induced paw oedema in ICR mouse assessed as reduction in NO level in serum at 20 mg/kg, po administered 30 mins prior to carrageenan challenge after 5 hrs post carrageenan; type: functional, organism-based
Mus musculus [23] = assay: Antiinflammatory activity against carrageenan-induced paw oedema in ICR mouse assessed as inhibition of paw edema at 20 mg/kg, po administered 30 mins prior to carrageenan challenge after 5 hrs post carrageenan challenge; type: functional, organism-based
Mus musculus [24] = assay: Antiinflammatory activity against carrageenan-induced paw oedema in ICR mouse assessed as inhibition of paw edema at 20 mg/kg, po administered 30 mins prior to carrageenan challenge measured at 2 hrs post carrageenan challenge relative to control; type: functional

Structure (SMILES)	Activity (RAW264.7 [1])	IC50 (RAW264.7 [2]) [µM]	also measured
C/C=C/c1ccc(O[C@@H]2O[C@H](CO[C@@H]3O[C@@H](C)[C@@H]4OC(=O)c5cc(O)c(O)c(O)c5-c5c(cc(O)c(O)c5O)C(=O)O[C@H]4[C@H]3O)[C@H]3OC(=O)c4cc(O)c(O)c(O)c4-c4c(cc(O)c(O)c4O)C(=O)O[C@@H]3[C@H]2O)cc1	Non-Toxic	3.6	–
C=CCc1ccc(O[C@@H]2O[C@H](CO)[C@@H](O)[C@H](O)[C@H]2O)c(O)c1	Non-Toxic	> 50	–
C/C=C/c1ccc(O[C@@H]2O[C@H](CO)[C@H]3OC(=O)c4cc(O)c(O)c(O)c4-c4c(cc(O)c(O)c4O)C(=O)O[C@@H]3[C@H]2O)c(O)c1	Non-Toxic	2.1	–
C/C=C/c1ccc(O[C@@H]2O[C@H](CO)[C@@H](O)[C@H](O)[C@H]2O)c(O)c1	Non-Toxic	29.2	–
C=CCc1ccc(O[C@@H]2O[C@H](CO[C@@H]3O[C@@H](C)[C@@H]4OC(=O)c5cc(O)c(O)c(O)c5-c5c(cc(O)c(O)c5O)C(=O)O[C@H]4[C@H]3O)[C@H]3OC(=O)c4cc(O)c(O)c(O)c4-c4c(cc(O)c(O)c4O)C(=O)O[C@@H]3[C@H]2O)cc1	Non-Toxic	1.9	inhibition [3]: Active; inhibition [4]: Active; Activity (RAW264.7 [5]): Dose-dependent effect; Activity (RAW264.7 [6]): Dose-dependent effect; Activity (RAW264.7 [7]): Dose-dependent effect; Activity (RAW264.7 [8]): Dose-dependent effect; Activity [9]: Non-Toxic; Activity (RAW264.7 [10]): Dose-dependent effect; Activity [11]: Non-Toxic; Activity (Mus musculus [12]): Active; Activity (Mus musculus [13]): Active; Activity (Mus musculus [14]): Active; Activity (Mus musculus [15]): Active; inhibition (Mus musculus [16]): Active; inhibition in vivo at 50 mg/kg (Mus musculus [17]): 26.9%; inhibition (RAW264.7 [18]): inactive; inhibition [19]: inactive; inhibition (RAW264.7 [20]): inactive; Activity (RAW264.7 [21]): inactive
C=CCc1ccc(O[C@@H]2O[C@H](CO)[C@H]3OC(=O)c4cc(O)c(O)c(O)c4-c4c(cc(O)c(O)c4O)C(=O)O[C@@H]3[C@H]2O)c(O)c1	Non-Toxic	4.1	–
C=CCc1ccc(O[C@@H]2O[C@H](CO)[C@@H](O)[C@H](O)[C@H]2O)cc1	Non-Toxic	> 50	–
O=c1cc(-c2ccc(O)c(O)c2)oc2cc(O)cc(O)c12 [LUTEOLIN]	Non-Toxic	5.8	–
O=c1oc2c(O)c(O)cc3c(=O)oc4c(O)c(O)cc1c4c23 [ELLAGIC ACID]	Non-Toxic	> 50	–
C/C=C/c1ccc(O[C@@H]2O[C@H](CO)[C@@H](O)[C@H](O)[C@H]2O)cc1	Non-Toxic	> 50	–
O=C(O)c1cc(O)c(O)c(O)c1 [GALLIC ACID]	Non-Toxic	> 50	–
C=CCc1ccc(O[C@@H]2O[C@H](COC(=O)c3cc(O)c(O)c(O)c3)[C@H]3OC(=O)c4cc(O)c(O)c(O)c4-c4c(cc(O)c(O)c4O)C(=O)O[C@@H]3[C@H]2O)c(O)c1	Non-Toxic	3.9	–
COc1ccc2c(c1)c(CC(=O)O)c(C)n2C(=O)c1ccc(Cl)cc1 [INDOMETHACIN]	–	–	Activity (Mus musculus [22]): Active; inhibition (Mus musculus [23]): Active; inhibition in vivo at 20 mg/kg (Mus musculus [24]): 26.5%
C/C=C/c1ccc(O[C@@H]2O[C@H](CO)[C@H]3OC(=O)c4cc(O)c(O)c(O)c4-c4c(cc(O)c(O)c4O)C(=O)O[C@@H]3[C@H]2O)cc1	Non-Toxic	8.2	–
C=CCc1ccc(O[C@@H]2O[C@H](CO)[C@H]3OC(=O)c4cc(O)c(O)c(O)c4-c4c(cc(O)c(O)c4O)C(=O)O[C@@H]3[C@H]2O)cc1	Non-Toxic	4.3	–
